Results as given in US20250127907A1, “PARP INHIBITORS” (Stablix, Inc., priority 2023, published 2025).
Where two headings read alike, the source gives them in different places.

Assays:
[1] = target: T1, PARP1 (Homo sapiens, UniProt P09874); assay: PARP trapping assay in U2OS cells; format: cell-based; set-up: endogenous in cells; host or cells: U2OS; conditions: U2OS cells, MMS, 4 hrs; read-out: PARP Trapping (U2OS)
Procedure, shortened: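 U2OS cells co-treated with compounds and MMS for 4 h, then soluble proteins extracted with 0.5% Triton X-100, MeOH-fixed and immunostained for PARP1. Chromatin-bound PARP1 quantified as AF488 intensity per DAPI-segmented nucleus; potencies reported as letter-code bins.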
Target sequence in this assay (P09874 whole entry): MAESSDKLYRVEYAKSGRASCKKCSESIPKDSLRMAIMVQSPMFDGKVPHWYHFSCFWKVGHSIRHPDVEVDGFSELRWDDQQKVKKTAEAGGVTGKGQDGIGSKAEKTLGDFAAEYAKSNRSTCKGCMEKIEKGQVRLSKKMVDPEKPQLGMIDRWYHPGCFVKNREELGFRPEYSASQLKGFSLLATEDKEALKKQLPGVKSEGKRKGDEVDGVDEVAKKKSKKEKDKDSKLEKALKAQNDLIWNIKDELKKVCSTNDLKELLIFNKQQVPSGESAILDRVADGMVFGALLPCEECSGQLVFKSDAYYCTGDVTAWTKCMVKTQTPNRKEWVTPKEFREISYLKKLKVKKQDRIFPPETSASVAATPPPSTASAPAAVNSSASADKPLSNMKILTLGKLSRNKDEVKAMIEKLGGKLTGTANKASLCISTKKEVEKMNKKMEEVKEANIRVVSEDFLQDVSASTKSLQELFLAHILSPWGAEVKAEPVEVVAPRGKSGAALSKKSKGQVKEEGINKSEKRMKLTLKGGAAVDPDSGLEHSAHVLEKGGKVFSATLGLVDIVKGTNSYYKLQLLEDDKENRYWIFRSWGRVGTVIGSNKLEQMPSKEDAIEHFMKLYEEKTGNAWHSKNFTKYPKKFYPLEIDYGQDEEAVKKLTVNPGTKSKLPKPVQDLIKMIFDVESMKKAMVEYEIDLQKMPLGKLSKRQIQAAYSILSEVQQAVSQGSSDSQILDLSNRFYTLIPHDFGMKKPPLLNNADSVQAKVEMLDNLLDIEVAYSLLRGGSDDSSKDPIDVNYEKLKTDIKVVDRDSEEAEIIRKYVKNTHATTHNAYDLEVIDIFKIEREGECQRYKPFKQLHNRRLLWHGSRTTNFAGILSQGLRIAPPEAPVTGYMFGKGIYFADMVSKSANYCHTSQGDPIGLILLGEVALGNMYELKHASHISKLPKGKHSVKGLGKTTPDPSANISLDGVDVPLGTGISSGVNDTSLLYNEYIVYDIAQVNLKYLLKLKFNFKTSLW

[2] = target: T1, PARP1; assay: PARP1-enzyme assay (NAD/NADH-Glo biochemical assay); conditions: recombinant PARP1, NAD+ consumption
Protocol: The PARP enzyme catalyzes the transfer of ADP-Ribose from NAD+ onto PAR chains/histone substrates. The catalytic cycle is monitored indirectly with the NAD/NADH-Glo Assay kit from Promega. […] NAD+ consumed is determined by comparison to the no enzyme control.
• Recombinant PARP1 • NAD+/NAHD-Glow assay Kit • Activated DNA, 10 μg/mL • NAD+(Nicotinamide Adenine Dinucleotide), 500 nM • Protein substrate for PARP1: Core Histone from chicken, 10 μg/mL
The letter codes for the PARP1-enzyme assay include: A (<1 nM), B (>1-10 nM), C (>10-100 nM), D (>100-1000 nM), E (>1000 nM), and “-” is not tested. The letter codes for the PARP trapping assay, and parylation assay include: A (<10 nM), B (>10-100 nM), C (>100-1000 nM), […], E (>10000 nM), and “-” is not tested.
Target sequence in this assay (P09874 whole entry, species assumed): as the sequence (P09874 whole entry) above

[3] = test system: MDA-MB-436 cells; assay: Cell proliferation assay (MDA-MB-436); format: cell-based; conditions: 7 days
[4] = test system: A2780 cells; assay: Cell proliferation assay (A2780); format: cell-based; conditions: Homo sapiens, 168 h, 7 days
[5] = test system: HCC1806 cells; assay: Cell proliferation assay (HCC1806); format: cell-based; conditions: 7 days
[6] = test system: Poly/Mono-ADP Ribose in U2OS cells; assay: PAR in cell western assay (parylation) in U2OS cells; format: cell-based; conditions: U2OS cells, 6 hrs, 2 mM H2O2, read-out: Parylation (U2OS)
Procedure, shortened: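 U2OS cells treated with compound for 6 h, then 2 mM H2O2 for 10 min to induce DNA damage. After methanol fixation, cells stained overnight at 4 °C with anti-mono/poly-ADP-ribose antibody and imaged by infrared in-cell western, normalized to CellTag 700; reported as % control inhibition.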

| Structure (SMILES) | IC50 [1] | IC50 [2] | IC50 ([3]; Homo sapiens, 168 h) | IC50 [4] | IC50 ([5]; Homo sapiens, 168 h) | IC50 ([6]; Homo sapiens) | IC50 [3] | IC50 [5] | IC50 [6] |
| --- | --- | --- | --- | --- | --- | --- | --- | --- | --- |
| CCOc1cc(OC)ccc1COCC(=O)N1CCCC(c2cccc(C(=O)N[C@@H](C(=O)N3CCN(CC4CCN(CC(=O)N5CCN(C(=O)c6cc(Cc7n[nH]c(=O)c8ccccc78)ccc6F)CC5)CC4)CC3)C3CCCCC3)c2)C1 (stereo partly shown) [Compound I-354] | 10 to 100 nM | < 1 nM | 10 to 100 nM | 10 to 100 nM | – | 100 to 1000 nM | – | – | – |
| O=C(N[C@@H](C(=O)N1CCN(CC2CCN(CC(=O)N3CCN(C(=O)c4cc(Cc5n[nH]c(=O)c6ccccc56)ccc4F)CC3)CC2)CC1)C1CCCCC1)c1cccc([C@@H]2CCCN(C(=O)CNC3CC3)C2)c1 [Compound I-365] | 100 to 1000 nM | < 1 nM | 10 to 100 nM | 1000 to 10000 nM | – | 10 to 100 nM | – | – | – |
| CCc1cccc(-c2cnc(C(=O)N3CCC(CN4CCN(CC(=O)N5CCN(C(=O)c6cc(Cc7n[nH]c(=O)c8ccccc78)ccc6F)CC5)CC4)CC3)c(N)c2)c1 [Compound I-366] | 100 to 1000 nM | < 1 nM | 100 to 1000 nM | 100 to 1000 nM | 100 to 1000 nM | 100 to 1000 nM | – | – | – |
| CCc1cccc(-c2cnc(C(=O)N3CCC(CN4CCN(CC(=O)N5CCN(C(=O)c6cc(Cc7n[nH]c(=O)c8ccccc78)ccc6F)CC5)CC4)CC3)c(NC(C)=O)c2)c1 [Compound I-367] | 100 to 1000 nM | < 1 nM | 100 to 1000 nM | 100 to 1000 nM | 100 to 1000 nM | 100 to 1000 nM | – | – | – |
| O=C(NC(C(=O)N1CCC(OC2CCN(CC(=O)N3CCN(C(=O)c4cc(Cc5n[nH]c(=O)c6ccccc56)ccc4F)CC3)CC2)CC1)C1CCCCC1)c1cccc(C2CCCN(C(=O)CNCc3ccc(F)cc3F)C2)c1 (stereo not shown) [Compound I-369] | 100 to 1000 nM | < 1 nM | < 10 nM | 10 to 100 nM | 100 to 1000 nM | 10 to 100 nM | – | – | – |
| O=C(CNC1CC1)N1CCCC(c2cccc(C(=O)N3CCN(CC45CCC(C(=O)N6CCN(C(=O)c7cc(Cc8n[nH]c(=O)c9ccccc89)ccc7F)CC6)(CC4)CO5)CC3)c2)C1 (stereo not shown) [Compound I-377] | 10 to 100 nM | < 1 nM | < 10 nM | 10 to 100 nM | – | 10 to 100 nM | – | – | – |
| CCc1cccc(-c2cnc(C(=O)NCCOCCNCC(=O)N3CCN(C(=O)c4cc(Cc5n[nH]c(=O)c6ccccc56)ccc4F)CC3)c(NC(C)=O)c2)c1 [Compound I-403] | 100 to 1000 nM | < 1 nM | < 10 nM | 10 to 100 nM | 10 to 100 nM | 10 to 100 nM | – | – | – |
| CCc1cccc(-c2cnc(C(=O)N3CCC(OC4CCN(CC(=O)N5CCN(C(=O)c6cc(Cc7n[nH]c(=O)c8ccccc78)ccc6F)CC5)CC4)CC3)c(NC(C)=O)c2)c1 [Compound I-404] | 100 to 1000 nM | < 1 nM | < 10 nM | 10 to 100 nM | – | 10 to 100 nM | – | – | – |
| CCc1cccc(-c2cnc(C(=O)N3CCC(CN4CCN(CC(=O)N5CCN(C(=O)c6cc(Cc7n[nH]c(=O)c8ccccc78)ccc6F)CC5)CC4)CC3)c(NC3CC3)c2)c1 [Compound I-407] | 10 to 100 nM | < 1 nM | < 10 nM | 10 to 100 nM | – | 10 to 100 nM | – | – | – |
| CCc1cccc(-c2cnc(C(=O)N3CCC(CN4CCN(CC(=O)N5CCN(C(=O)c6cc(Cc7n[nH]c(=O)c8ccccc78)ccc6F)CC5)CC4)CC3)c(NC)c2)c1 [Compound I-418] | 100 to 1000 nM | < 1 nM | < 10 nM | 100 to 1000 nM | – | 100 to 1000 nM | – | – | – |
| CCc1cccc(-c2cnc(C(=O)N3CCC(CN4CCN(CC(=O)N5CCN(C(=O)c6cc(Cc7n[nH]c(=O)c8ccccc78)ccc6F)CC5)CC4)CC3)c(OC(F)(F)F)c2)c1 [Compound I-420] | 10 to 100 nM | < 1 nM | < 10 nM | 100 to 1000 nM | – | 100 to 1000 nM | – | – | – |

Now from value to compound:

| IC50 [1] | IC50 [2] | IC50 ([3]; Homo sapiens, 168 h) | IC50 [4] | IC50 ([5]; Homo sapiens, 168 h) | IC50 ([6]; Homo sapiens) | IC50 [3] | IC50 [5] | IC50 [6] | Structure (SMILES) |
| --- | --- | --- | --- | --- | --- | --- | --- | --- | --- |
| 100 to 1000 nM | < 1 nM | 10 to 100 nM | 1000 to 10000 nM | 100 to 1000 nM | 100 to 1000 nM | – | – | – | CCOc1cc(OC)ccc1CNCC(=O)N1CCCC(c2cccc(C(=O)N[C@@H](C(=O)N3CCN(CC4CCN(CC(=O)N5CCN(C(=O)c6cc(Cc7n[nH]c(=O)c8ccccc78)ccc6F)CC5)CC4)CC3)C3CCCCC3)c2)C1 (stereo partly shown) [Compound I-28] |
| – | < 1 nM | 1000 to 10000 nM | – | < 10 nM | < 10 nM | – | – | – | CCOc1cc(OC)ccc1CNCC(=O)N1CCCC(c2cccc(C(=O)N[C@@H](C(=O)NCc3cn(CCNCC(=O)N4CCN(C(=O)c5cc(Cc6n[nH]c(=O)c7ccccc67)ccc5F)CC4)nn3)C3CCCCC3)c2)C1 (stereo partly shown) [Compound I-29] |
| – | < 1 nM | 100 to 1000 nM | – | < 10 nM | < 10 nM | – | – | – | CCOc1cc(OC)ccc1CNCC(=O)N1CCCC(c2cccc(C(=O)N[C@@H](C(=O)NCCOCCOCCOCCOCCNCC(=O)N3CCN(C(=O)c4cc(Cc5n[nH]c(=O)c6ccccc56)ccc4F)CC3)C3CCCCC3)c2)C1 (stereo partly shown) [Compound I-31] |
| 100 to 1000 nM | < 1 nM | 100 to 1000 nM | 10 to 100 nM | 100 to 1000 nM | 100 to 1000 nM | – | – | – | CCc1cccc(-c2cnc(C(=O)NCCOCCNCC(=O)N3CCN(C(=O)c4cc(Cc5n[nH]c(=O)c6ccccc56)ccc4F)CC3)c(NC(=O)CNCc3cccc(C)c3)c2)c1 [Compound I-63] |
| 100 to 1000 nM | < 1 nM | 10 to 100 nM | – | < 10 nM | 100 to 1000 nM | – | – | – | COC12CCC(CNCC(=O)N3CCCC(c4cccc(C(=O)N[C@@H](C(=O)N5CCN(CC6CCN(CC(=O)N7CCN(C(=O)c8cc(Cc9n[nH]c(=O)c%10ccccc9%10)ccc8F)CC7)CC6)CC5)C5CCCCC5)c4)C3)(CC1)OC2 (stereo partly shown) [Compound I-157] |
| 100 to 1000 nM | < 1 nM | 10 to 100 nM | – | < 10 nM | 100 to 1000 nM | – | – | – | COC12CCC(CNCC(=O)N3CCCC(c4cccc(C(=O)N[C@@H](C(=O)N5CCC(CN6CCN(CC(=O)N7CCN(C(=O)c8cc(Cc9n[nH]c(=O)c%10ccccc9%10)ccc8F)CC7)CC6)CC5)C5CCCCC5)c4)C3)(CC1)OC2 (stereo partly shown) [Compound I-165] |
| 10 to 100 nM | < 1 nM | 10 to 100 nM | – | < 10 nM | 100 to 1000 nM | – | – | – | CCOc1cc(OC)ccc1CNCC(=O)N1CCCC(c2cccc(C(=O)N[C@@H](C(=O)N3CCN(CC45CCC(C(=O)N6CCN(C(=O)c7cc(Cc8n[nH]c(=O)c9ccccc89)ccc7F)CC6)(CC4)CO5)CC3)C3CCCCC3)c2)C1 (stereo partly shown) [Compound I-166] |
| 10 to 100 nM | < 1 nM | 100 to 1000 nM | – | < 10 nM | 100 to 1000 nM | – | – | – | CCOc1cc(OC)ccc1CNCC(=O)N1CCC[C@H](c2cccc(C(=O)N[C@@H](C(=O)N3CCN(CC4CCN(CC(=O)N5CCN(C(=O)c6cc(Cc7n[nH]c(=O)c8ccccc78)ccc6F)CC5)CC4)CC3)C3CCCCC3)c2)C1 [Compound I-167] |
| 10 to 100 nM | < 1 nM | 10 to 100 nM | – | < 10 nM | 100 to 1000 nM | – | – | – | CCOc1cc(OC)ccc1CNCC(=O)N1CCCC(c2cccc(C(=O)N[C@@H](C(=O)N3CCC(OC4CCN(CC(=O)N5CCN(C(=O)c6cc(Cc7n[nH]c(=O)c8ccccc78)ccc6F)CC5)CC4)CC3)C3CCCCC3)c2)C1 (stereo partly shown) [Compound I-173] |
| > 10000 nM | < 1 nM | – | – | – | – | 100 to 1000 nM | < 10 nM | 100 to 1000 nM | Cc1sc(CN2CCCC2c2nnc3n2CCCCC3)nc1C12CC(C(=O)NCCOCCOCCNCC(=O)N3CCN(C(=O)c4cc(Cc5cccc6c(=O)[nH]ncc56)ccc4F)CC3)(C1)C2 (stereo not shown) [Compound I-193] |
| > 10000 nM | < 1 nM | 100 to 1000 nM | – | < 10 nM | 100 to 1000 nM | – | – | – | Cc1sc(CN2CCCC2c2nnc3n2CCCCC3)nc1C12CC(C(=O)NCCOCCOCCOCCNCC(=O)N3CCN(C(=O)c4cc(Cc5n[nH]c(=O)c6ccccc56)ccc4F)CC3)(C1)C2 (stereo not shown) [Compound I-194] |
| 1000 to 10000 nM | < 1 nM | 100 to 1000 nM | – | < 10 nM | 10 to 100 nM | – | – | – | Cc1sc(CN2CCCC2c2nnc3n2CCCCC3)nc1C12CC(C(=O)NCCOCCOCCOCCOCCNCC(=O)N3CCN(C(=O)c4cc(Cc5n[nH]c(=O)c6ccccc56)ccc4F)CC3)(C1)C2 (stereo not shown) [Compound I-195] |
| 100 to 1000 nM | < 1 nM | 10 to 100 nM | – | < 10 nM | 10 to 100 nM | – | – | – | CCc1cccc(-c2cnc(C(=O)N3CCN(CC4CCN(CC(=O)N5CCN(C(=O)c6cc(Cc7n[nH]c(=O)c8ccccc78)ccc6F)CC5)CC4)CC3)c(NC(=O)CNCc3cc(C)no3)c2)c1 [Compound I-233] |
